Publication PMC9331004 (Scientific Reports, 2022)
Like-named read-outs stand apart in the source and are kept apart here.

Legend:
[1] = system: MERS-CoV (isolate NRCE-HKU270); assay: microbe, parasite or virus in culture; format: cell-based; conditions: for IC50: Middle East respiratory syndrome-related coronavirus
in vitro = conditions: African green monkey, CC50, Vero-E6 cells, crystal violet
[2] = system: SARS-CoV-2 (hCoV-19/Egypt/NRC-3/2020, NRC-03-nhCoV); assay: microbe, parasite or virus in culture; format: cell-based; conditions: for IC50: Severe acute respiratory syndrome coronavirus 2, Vero C1008, 72 h
MERS-CoV [3] = format: cell-based
SARS-CoV-2 [4] = format: cell-based
MERS-CoV [5] = format: cell-based; remark: listed apart in the source
SARS-CoV-2 [6] = assay: microbe, parasite or virus in culture; format: cell-based
[7] = Vero C1008, read-out: IC50 against MERS-CoV
[8] = read-out: IC50 against SARS-CoV-2
[9] = Vero C1008, read-out: IC50 MERS-CoV

| SMILES | IC50 [1, 7] [µM] | CC50 at 72 h (in vitro) [µM] | IC50 ([2]; read-out: IC50 SARS-CoV-2) [µM] | IC50 [2, 8] [µM] | IC50 [1, 9] [µM] | effect on viral RNA copy number (qRT-PCR) (MERS-CoV [3]) | mode of action against SARS-CoV-2 (SARS-CoV-2 [4]) | selectivity index (CC50/IC50) for MERS-CoV [1] | mode of action against MERS-CoV (MERS-CoV [5]) | selectivity index (CC50/IC50) for SARS-CoV-2 [2] | effect on viral RNA copy number (qRT-PCR) (SARS-CoV-2 [6]) | inhibition at 8.3 µM (SARS-CoV-2 [6]; Severe acute respiratory syndrome coronavirus 2, Vero C1008, 48 h, read-out: viral inhibition compared to untreated and infected cells (qRT-PCR)) [%] | CC50 at 72 h (in vitro; values given in Fig. 2) [µM] |
| --- | --- | --- | --- | --- | --- | --- | --- | --- | --- | --- | --- | --- | --- |
| CN1CCN(C(=O)O[C@H]2c3nccnc3C(=O)N2c2ccc(Cl)cn2)CC1 [Eszopiclone] | 99.9 | 193 | 80 | 80 | – | – | – | – | – | – | – | – | – |
| CN(C)CCC[C@@]1(c2ccc(F)cc2)OCc2cc(C#N)ccc21 [Escitalopram] | 93.5 | 352 | – | 209 | 93.6 | – | – | – | – | – | – | – | – |
| Fc1ccc([C@@H]2CCNC[C@H]2COc2ccc3c(c2)OCO3)cc1 [Paroxetine] | 7.7 | 264 | – | 22.7 | 7.73 | reduction in viral RNA copy number | remarkable virucidal effect and effects on virus replication | 34.2 | virucidal and replication potential combination mechanisms | 11.6 | reduction in viral RNA copy number | 99 | – |
| CN(C)CCCN1c2ccccc2CCc2ccccc21 [Imipramine] | 14.2 | 270 | 29.5 | 29.4 | – | reduction in viral RNA copy number | – | 19 | virucidal and replication potential combination mechanisms | – | – | – | 271 |
| CN[C@H]1CC[C@@H](c2ccc(Cl)c(Cl)c2)c2ccccc21 [Sertraline] | – | 116 | – | – | – | reduction in viral RNA copy number | – | – | virucidal and adsorption mechanisms | – | – | – | – |
| CN(C)CCCC1(c2ccc(F)cc2)OCc2cc(C#N)ccc21 (stereo not drawn) [Citalopram] | 302 | 295 | – | 172 | 303 | – | – | – | – | – | – | – | 295 |
| CN1CCN2c3ncccc3Cc3ccccc3C2C1 (stereo not drawn) [Mirtazapine] | 132 | 572 | – | 180 | – | – | – | – | – | – | – | – | 572 |
| CN(C)CCC=C1c2ccccc2CCc2ccccc21 [Amitriptyline] | 129 | 306 | – | 10.7 | – | – | remarkable virucidal effect and effects on virus replication | – | – | 28.5 | reduction in viral RNA copy number | – | – |
